The text below walks through data of ChEMBL document CHEMBL3867478, “ProTides of BVdU as potential anticancer agents upon efficient intracellular delivery of their activated metabolites” (Bioorg Med Chem Lett, 2016).

The series in a line: Drug level in pH 7.6 trizma buffer treated with 5 mg (E)-5-(2-bromovinyl)-2'-deoxyuridine-5'-(1-naphthyl(methoxy-L-tryptophanyl)-phosphate assessed as carboxypeptidase Y (unknown origin)-mediated compound formation measured every 7 mins for 14 hrs by [31P]-NMR spectroscopic analysis. Particulars: pH 7.6, 14 h. The class given is ADME.
As to `O=C(O)C(Cc1c[nH]c2ccccc12)NP(=O)(OC[C@H]1O[C@@H](n2cc(/C=C/Br)c(=O)[nH]c2=O)C[C@@H]1O)Oc1cccc2ccccc12` (stereo partly drawn), the Drug metabolism entry is recorded as “Metabolite_Detected”.
The value for `O=C(O)C(Cc1c[nH]c2ccccc12)NP(=O)(O)OC[C@H]1O[C@@H](n2cc(/C=C/Br)c(=O)[nH]c2=O)C[C@@H]1O` (stereo partly drawn) was “Metabolite_Detected”.
On to `O=C1OP(=O)(OC[C@H]2O[C@@H](n3cc(/C=C/Br)c(=O)[nH]c3=O)C[C@@H]2O)NC1Cc1c[nH]c2ccccc12` (stereo partly drawn), for which the Drug metabolism result is recorded as “Metabolite_Detected”.
